{
  "source": "patent US20250230193A1",
  "about": "“CYCLIC COMPOUND HAVING SELECTIVE KRAS INHIBITORY EFFECT ON HRAS AND NRAS” (CHUGAI SEIYAKU KABUSHIKI KAISHA, priority 2022, published 2025)",
  "key": {"[1]": {"target": "GDP-bound HRAS wild-type protein (Homo sapiens, UniProt P01112)", "sequence (P01112 whole entry)": "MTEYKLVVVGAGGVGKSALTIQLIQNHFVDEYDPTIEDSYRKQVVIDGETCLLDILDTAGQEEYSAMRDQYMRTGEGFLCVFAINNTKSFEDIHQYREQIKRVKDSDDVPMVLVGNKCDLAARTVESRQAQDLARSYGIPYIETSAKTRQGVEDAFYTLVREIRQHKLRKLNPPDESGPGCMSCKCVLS", "test": "Binding to HRAS by surface plasmon resonance (SPR), Single Cycle Kinetics"}, "[2]": {"target": "GDP-bound NRAS wild-type protein (Homo sapiens, UniProt P01111)", "sequence (P01111 whole entry)": "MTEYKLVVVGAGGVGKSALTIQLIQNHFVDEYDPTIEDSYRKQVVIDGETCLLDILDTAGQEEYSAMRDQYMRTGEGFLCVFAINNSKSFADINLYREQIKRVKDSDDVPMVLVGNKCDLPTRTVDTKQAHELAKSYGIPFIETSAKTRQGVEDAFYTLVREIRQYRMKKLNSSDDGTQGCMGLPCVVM", "test": "Binding to NRAS by surface plasmon resonance (SPR), Single Cycle Kinetics"}, "[3]": {"settings": "GDP-bound HRAS wild-type vs GDP-bound KRAS wild-type, SPR"}, "[4]": {"settings": "GDP-bound NRAS wild-type vs GDP-bound KRAS wild-type, SPR"}},
  "note": "Where a SMILES comes first, the peptide text is derived from it. Bridges are numbered along the chain shown (N, C = ends). [ ]: non-standard residue; d: D form. The star is where a group is joined. hPhe(3-Cl-4-CF3) = N[C@@H](CCc1ccc(C(F)(F)F)c(Cl)c1)C(=O)O; NPrPhe(4-CF3) = CCCN[C@@H](Cc1ccc(C(F)(F)F)cc1)C(=O)O; NMeGly(cPent) = CN[C@H](C(=O)O)C1CCCC1; NMeF = CN[C@@H](Cc1ccccc1)C(=O)O; NMeD = CN[C@@H](CC(=O)O)C(=O)O; NMeL = CN[C@@H](CC(C)C)C(=O)O; Morpholide = C1CN(*)CCO1; Ac5c = NC1(C(=O)O)CCCC1; Aze = O=C(O)[C@@H]1CCN1; Sar = CNCC(=O)O",
  "data": [
    {"smiles": "CCCN1C(=O)[C@@H]2CCN2C(=O)[C@H](Cc2ccccc2)N(C)C(=O)[C@H]([C@@H](C)CC)NC(=O)[C@H](CC(C)C)N(C)C(=O)C[C@@H](C(=O)N2CCOCC2)N(C)C(=O)[C@H](C2CCCC2)N(C)C(=O)C2(CCCC2)NC(=O)[C@@H]2CCCN2C(=O)[C@H](CCc2ccc(C(F)(F)F)c(Cl)c2)NC(=O)CN(C)C(=O)[C@@H]1Cc1ccc(C(F)(F)F)cc1", "note": "[PP0209] ([NMeL]I[NMeF][Aze][NPrPhe(4-CF3)][Sar][hPhe(3-Cl-4-CF3)]P[Ac5c][NMeGly(cPent)][NMeD]-Morpholide; lactam N-11)", "values": [
      {"measurement": "HRAS/KRAS (ratio of KD for GDP-bound HRAS wild-type to KD for KRAS)", "setting": "[1]; KD ratio HRAS/KRAS, SPR", "value": "C (A compound having a KD ratio of 0.1 or more and less than 3 is denoted as C)"},
      {"measurement": "NRAS/KRAS (ratio of KD for GDP-bound NRAS wild-type to KD for KRAS)", "setting": "[2]; KD ratio NRAS/KRAS, SPR", "value": "C (A compound having a KD ratio of 0.1 or more and less than 3 is denoted as C)"}
    ]},
    {"smiles": "CCO[C@@H]1C[C@H]2C(=O)NC3(CC(C)(C)C3)C(=O)N(C)[C@@H](C3CCCC3)C(=O)N(C)[C@H](C(=O)N(C)C)CC(=O)N(C)[C@@H](CC3CCC3)C(=O)N[C@@H]([C@@H](C)CC)C(=O)N(C)CC(=O)N(C)[C@H]3C/C=C\\CCN(C3=O)[C@@H](Cc3ccc(C(F)(F)F)cc3)C(=O)N(C)CC(=O)N[C@@H](CCc3cc(F)c(Cl)c(F)c3)C(=O)N2C1", "note": "[PP1762]", "values": [
      {"measurement": "HRAS/KRAS (ratio of KD value for HRAS to KD value for KRAS)", "setting": "[1]; [3]", "value": "A (a compound having 10 or more and less than 20 is denoted as A)"},
      {"measurement": "NRAS/KRAS (ratio of KD value for NRAS to KD value for KRAS)", "setting": "[2]; [4]", "value": "A (a compound having 10 or more and less than 20 is denoted as A)"}
    ]},
    {"smiles": "CCOC[C@H]1C(=O)N[C@@H]([C@@H](C)CC)C(=O)N(C)CC(=O)N(C)[C@H]2C/C=C\\CCN(C2=O)[C@@H](Cc2ccc(C(F)(F)F)cc2)C(=O)N(C)CC(=O)N[C@@H](CCc2ccc(C(F)(F)F)c(OC)c2)C(=O)N2C[C@H](OCC)C[C@H]2C(=O)NC2(CC(C)(C)C2)C(=O)N(C)[C@@H](C2CCCC2)C(=O)N(C)[C@H](C(=O)N(C)CC)CC(=O)N1C", "note": "[PP2014]", "values": [
      {"measurement": "HRAS/KRAS (ratio of KD value for HRAS to KD value for KRAS)", "setting": "[1]; [3]", "value": "A (a compound having 10 or more and less than 20 is denoted as A)"},
      {"measurement": "NRAS/KRAS (ratio of KD value for NRAS to KD value for KRAS)", "setting": "[2]; [4]", "value": "A (a compound having 10 or more and less than 20 is denoted as A)"}
    ]},
    {"smiles": "CCC[C@H]1C(=O)N[C@@H]([C@@H](C)CC)C(=O)N(C)CC(=O)N(C)[C@H]2CCCCN(C2=O)[C@@H](Cc2ccc(C(F)(F)F)cc2)C(=O)N(C)CC(=O)N[C@@H](CCc2cc(F)c(C(F)(F)F)c(F)c2)C(=O)N2C[C@H](OCC)C[C@H]2C(=O)NC2(CCC2)C(=O)N(C)[C@@H](C2CCCC2)C(=O)N(C)[C@H](C(=O)N2CCOCC2)CC(=O)N1C", "note": "[PP0709]", "values": [
      {"measurement": "HRAS/KRAS (ratio of KD value with respect to GDP-bound HRAS wild-type protein to KD value with respect to KRAS)", "setting": "[1]; KD ratio HRAS/KRAS, SPR", "value": "B (a compound having 3 or more and less than 10 is denoted as B)"},
      {"measurement": "NRAS/KRAS (ratio of KD value with respect to GDP-bound NRAS wild-type protein to KD value with respect to KRAS)", "setting": "[2]; KD ratio NRAS/KRAS, SPR", "value": "C (A compound having a KD ratio of 0.1 or more and less than 3 is denoted as C)"}
    ]},
    {"smiles": "CCOC[C@H]1C(=O)N[C@@H]([C@@H](C)CC)C(=O)N(C)CC(=O)N(C)[C@H]2C/C=C\\CCN(C2=O)[C@@H](Cc2ccc(C(F)(F)F)cc2)C(=O)N(C)CC(=O)N[C@@H](CCc2ccc(Cl)c(Cl)c2)C(=O)N2C[C@H](OCC)C[C@H]2C(=O)NC2(CC(C)(C)C2)C(=O)N(C)[C@@H](CC(C)(C)C)C(=O)N(C)[C@H](C(=O)N(C)C)CC(=O)N1C", "note": "[PP2740]", "values": [
      {"measurement": "HRAS/KRAS (ratio of KD value with respect to GDP-bound HRAS wild-type protein to KD value with respect to KRAS)", "setting": "[1]; KD ratio HRAS/KRAS, class symbols", "value": "A (a compound having 10 or more and less than 20 is denoted as A)"},
      {"measurement": "NRAS/KRAS (ratio of KD value with respect to GDP-bound NRAS wild-type protein to KD value with respect to KRAS)", "setting": "[2]; KD ratio NRAS/KRAS, class symbols", "value": "AA (a compound having 20 or more is denoted as AA)"}
    ]},
    {"smiles": "CCOC[C@H]1C(=O)N[C@@H]([C@@H](C)CC)C(=O)N(C)CC(=O)N(C)[C@H]2C/C=C\\CCN(C2=O)[C@@H](Cc2ccc(C)cc2)C(=O)N(C)CC(=O)N[C@@H](CCc2ccc(C(F)(F)F)c(OC)c2)C(=O)N2C[C@H](OCC)C[C@H]2C(=O)NC2(CC(C)(C)C2)C(=O)N(C)[C@@H](C2CCCC2)C(=O)N(C)[C@H](C(=O)N(C)CC)CC(=O)N1C", "note": "[PP2445]", "values": [
      {"measurement": "HRAS/KRAS (ratio of KD value with respect to HRAS to KD value with respect to KRAS)", "setting": "[1]; SPR, GDP-bound HRAS wild-type vs GDP-bound KRAS wild-type", "value": "B (a compound having 3 or more and less than 10 is denoted as B)"},
      {"measurement": "NRAS/KRAS (ratio of KD value with respect to NRAS to KD value with respect to KRAS)", "setting": "[2]; SPR, GDP-bound NRAS wild-type vs GDP-bound KRAS wild-type", "value": "A (a compound having 10 or more and less than 20 is denoted as A)"}
    ]}
  ]
}
